Assay results published in US20030206893A1, “Cell proliferating agents” (priority 2002, published 2003).
Counter-ions that a name gives are not always drawn.

What was measured:
[1] = test system: human skin fibroblast cell line (normal human dermal fibroblasts, neonatal); assay: Proliferative response of plant growth factors on human skin fibroblast cell line, 96-well assay (Cell Titer 96 Aqueous One, absorbance 490 nm); type: cell-based; conditions: 28 hours incubation, serum-free DMEM
Procedure: The proliferative response of plant growth factors on the human skin fibroblast cell line (Clonetics, Walkersville, Md., normal human dermal fibroblasts, neonatal, Catalog No. CC-2509) was determined in a 96-well assay system using serum-free medium as a control.
Stock solution of gibberellic acid (Sigma Chemical Company, St. Louis, Mo.) (0.001 M) was prepared in water and then diluted with serum-free Dulbecco's Modified Eagle's Medium (DMEM, Sigma Chemical Co., St. Louis, Mo.) to 10^−5, (“GA2”) and 10^−6 (“GA1”) M solutions. Cells were seeded into 96 well plates at a concentration of 3×10^3 cells in 100 microliters of DMEM containing 10 percent fetal bovine serum (FBS, Sigma Chemical Co., St. Louis, Mo.). Plates were incubated for 24 hours at 37° C. in a humidified, 5 percent CO2 atmosphere. After incubation, the medium was aspirated and the wells were rinsed twice with 100 microliters of serum-free DMEM. The final rinse was aspirated and 100 microliters of the 10^−5 and 10^−6 M of each solution was added to 10 wells. In addition, 100 microliters of vehicle (serum-free DMEM) was added to 10 wells as control. All wells were incubated for 28 hours at 37° C. in a humidified, 5 percent CO2 atmosphere. After incubation, 20 microliters of Cell Titer 96 Aqueous One Solution Reagent (Promega, Corp., Madison, Wis.) was added to all wells. The plates were swirled gently and placed back in the incubator for 45 minutes and spectrophotometric absorbance was read at 490 nm.
Statistical analysis was done by using one-way ANOVA.
Kinetin (Spectrum Chemical, CA) 1 mg/ml aqueous solution as supplied by the Company was used as a stock solution. Further dilutions were made with serum-free Dulbecco's Modified Eagle's Medium (DMEM, Sigma Chemical Co., St. Louis, Mo.) to 10^−5, (“K2”) and 10^−6 (“K1”) M solutions. Cells were seeded into 96 well plates at a concentration of 3×10^3 cells in 100 microliters of DMEM containing 10 percent fetal bovine serum (FBS, Sigma Chemical Co., St. Louis, Mo.). Plates were incubated for 24 hours at 37° C. in a humidified, 5 percent CO2 atmosphere. After incubation, the medium was aspirated and the wells were rinsed twice with 100 microliters of serum-free DMEM. The final rinse was aspirated and 100 microliters of the 10^−5 and 10^−6 M of each solution was added to 10 wells. In addition, 100 microliters of vehicle (serum-free DMEM) was added to 10 wells as control. All wells were incubated for 28 hours at 37° C. in a humidified, 5 percent CO2 atmosphere. After incubation, 20 microliters of Cell Titer 96 Aqueous One Solution Reagent (Promega, Corp., Madison, Wis.) was added to all wells. The plates were swirled gently and placed back in the incubator for 45 minutes and spectrophotometric absorbance was read at 490 nm. […]

[2] = test system: human fibroblasts; conditions: reported by S. I. Rattan, Biochem Biophys Res. Comm., 201, 665-672, 1994; cited from earlier work
[3] = 10^-4, 10^-5 and 10^-6 M solutions, 2x10^3 cells seeded
[4] = 10^-5 and 10^-6 M solutions, 3x10^3 cells seeded

Row | Compound | effect on cell proliferation versus serum-free medium control (one-way ANOVA) [1, 3] | effect on cell proliferation versus serum-free medium control (one-way ANOVA) [1, 4] | effect on onset of aging characteristics in human fibroblasts [2]
1 | C/C(=C\CNc1ncnc2[nH]cnc12)CO [zeatin, trans-zeatin HCl] | good cell proliferating agent | – | –
2 | C=C1C[C@]23C[C@@]1(O)CC[C@H]2[C@@]12C=C[C@H](O)[C@@](C)(C(=O)O1)[C@H]2[C@@H]3C(=O)O [gibberellic acid] | – | good cell proliferating agent | –
3 | c1coc(CNc2ncnc3[nH]cnc23)c1 [kinetin] | – | good cell proliferating agent | delay the onset of aging characteristics
4 | CC/C=C\C[C@H]1C(=O)CC[C@@H]1CC(=O)O [jasmonic acid] | strong cell proliferating agent | – | –
